Source: ChEMBL document CHEMBL3390831, “Design, synthesis, and structureactivity relationships of indole-3-carboxamides as novel water soluble cannabinoid CB1 receptor agonists” (Medchemcomm, 2010)
pEC50: −log10 of the molar value.

Columns and labels:
[1] = target: Cannabinoid receptor 1 (Homo sapiens, UniProt P21554)
Description: Agonist activity at human cannabinoid CB1 receptor expressed in CHO cells co-expressing AP-1 response element after 5 hrs by luciferase reporter gene assay

[2] = Aqueous solubility of the compound in citrate buffer at pH 5 by shake-flask method; assay type: physicochemical
[3] = Aqueous solubility of the compound in phosphate buffered saline at pH 7.1 by shake-flask method; assay type: physicochemical
[4] = Aqueous solubility of the compound in phosphate buffered saline at pH 6.7 by shake-flask method; assay type: physicochemical
[5] = Aqueous solubility of the compound in phosphate buffered saline at pH 7 by shake-flask method; assay type: physicochemical

Chain of Cannabinoid receptor 1 (P21554 whole entry): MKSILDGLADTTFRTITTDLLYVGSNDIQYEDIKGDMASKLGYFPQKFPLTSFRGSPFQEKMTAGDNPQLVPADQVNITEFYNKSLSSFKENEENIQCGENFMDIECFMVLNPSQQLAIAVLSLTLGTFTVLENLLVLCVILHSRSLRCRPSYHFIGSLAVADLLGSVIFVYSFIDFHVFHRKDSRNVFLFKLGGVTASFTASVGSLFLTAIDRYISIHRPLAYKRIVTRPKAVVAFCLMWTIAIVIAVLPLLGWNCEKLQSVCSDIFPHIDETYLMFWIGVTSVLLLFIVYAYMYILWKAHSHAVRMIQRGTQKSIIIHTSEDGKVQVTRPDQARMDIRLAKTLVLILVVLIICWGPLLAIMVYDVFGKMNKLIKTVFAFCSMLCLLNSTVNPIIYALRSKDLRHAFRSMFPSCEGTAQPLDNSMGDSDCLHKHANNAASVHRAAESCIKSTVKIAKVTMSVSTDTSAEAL

| Compound | pEC50 [1] | also measured |
| --- | --- | --- |
| CN1CCN(C(=O)c2cn(CC3CCCCC3)c3ccccc23)CC1 | 6.30 |  |
| CCN1CCN(C(=O)c2cn(CC3CCCCCC3)c3c(OC)cccc23)CC1 | 6.10 |  |
| O=C(Cc1ccccc1)N/N=C1\C(=O)N(CC2CCCCC2)c2cc(OCCN3CCOCC3)ccc21 | 7.20 |  |
| CCN1CCN(C(=O)c2cn(CC3CCCCC3)c3c(OC)cccc23)C[C@@H]1C.Cl | 7.40 | solubility thermodynamic [2]: > 4000 µg/mL; solubility thermodynamic [3]: 37 µg/mL |
| CCN1CCN(C(=O)c2cn(CC3CCCCC3)c3ccc(Cl)cc23)CC1 | 5.90 |  |
| CCN1CCN(C(=O)c2cn(CC3CCCCC3)c3cc(Br)ccc23)CC1 | 6.00 |  |
| CCN1CCN(C(=O)c2cn(CC3CCCCC3)c3ccc(OC)cc23)CC1 | < 5.50 |  |
| CCN1CCN(C(=O)c2cn(CC3CCCCC3)c3c(OC)cccc23)C[C@H]1C.Cl | 6.20 | solubility thermodynamic [2]: > 4000 µg/mL; solubility thermodynamic [3]: 74 µg/mL |
| CCN1CCN(C(=O)c2cn(CC3CCCCC3)c3cc(F)ccc23)CC1 | 6.60 |  |
| CCN1CCN(C(=O)c2cn(CC3CCCCC3)c3ccc(F)cc23)CC1 | 6.30 |  |
| CCN1CCN(C(=O)c2cn(CC3CCCCC3)c3cc(OC)ccc23)CC1 | 6.80 |  |
| CCN1CCN(C(=O)c2cn(CCN3CCOCC3)c3c(OC)cccc23)CC1 | < 5.50 |  |
| CCN1CCN(C(=O)c2cn(CC3CCCCC3)c3ccccc23)CC1 | 6.50 |  |
| CCN1CCN(C(=O)c2cn(CC3CCCCC3)c3c(OC)cccc23)CC1(C)C.Cl | 6.90 | solubility thermodynamic [2]: 3830 µg/mL; solubility thermodynamic [3]: 181 µg/mL |
| CCN1CCN(C(=O)c2cn(CC3CCCCC3)c3c(OC)cccc23)CC1.O=C(O)/C=C\C(=O)O |  | solubility thermodynamic [2]: 3400 µg/mL; solubility thermodynamic [4]: 216 µg/mL |
| CCN1[C@H](C)CN(C(=O)c2cn(CC3CCCCC3)c3c(OC)cccc23)C[C@@H]1C.Cl |  | solubility thermodynamic [5]: 9 µg/mL; solubility thermodynamic [2]: > 4000 µg/mL |
| O=C(N/N=C1\C(=O)N(Cc2ccccc2)c2ccccc21)c1ccccc1 | 6.20 |  |
